Assay results published in paper PMC9732253, “Inhibition of the Phosphatidylinositol-3 Kinase Pathway Using Bimiralisib in Loss-of-Function NOTCH1-Mutant Head and Neck Cancer” (The Oncologist, 2022).
Several values for one entry are separate records, joined by “and”; a condition that tells them apart may be missing. Equal values may be shown once.

System: NOTCH1-mutant HNSCC
Test: Phase II single-arm trial, tumor response by RECIST 1.1 and survival
Type: in vivo, human
Conditions: for Median OS / Median PFS: all 8 patients; for Median PFS: 95% CI 39-199 days
Description: Adults with an Eastern Cooperative Oncology Group performance status of ≤2, measurable disease according to Response Evaluation Criteria in Solid Tumors (RECIST) version 1.1,[1] and histologically confirmed recurrent or metastatic (R/M) HNSCC for which no standard curative or life-prolonging therapy was available were eligible. All patients had already received platinum chemotherapy and α-PD1 immunotherapy unless unable to tolerate them. […] Safety was continuously monitored. Demographic and clinical characteristics were summarized using univariate statistics, including mean, median, and standard deviation or frequency and percentage. Objective response rate was summarized by frequency and percentage with a 2-sided 95% […] CI.[5] Duration of response, PFS, and overall survival were analyzed using the Kaplan-Meier method.[6] All statistical analyses were performed using R statistical software (version 3.6.3, R Core Team, 2020). Survival modeling was performed using the “survival” package.[7] […] Time to response was defined as the time from first study drug administration to the first documentation of response (complete or partial). Duration of response was defined as the time from the date of the first confirmed response to the first documentation of disease progression. PFS was defined as the time from first study drug administration to disease progression or death due to any cause. Overall survival was defined as the time from first study drug administration to death due to any cause.

[1] = number (%) of 6 patients evaluated for efficacy, RECIST 1.1

Nc1cc(C(F)(F)F)c(-c2nc(N3CCOCC3)nc(N3CCOCC3)n2)cn1 [Bimiralisib, 5-(4,6-dimorpholino-1,3,5-triazin-2-yl)-4-(trifluoromethyl)pyridin-2-amine]
Response duration (6 evaluable patients): 111 days
Objective response rate (6 evaluable patients (1/6), RECIST 1.1, 140 mg orally on 2 consecutive days weekly, 95% CI 1-58%): 17%
Median TTP (CI: 83-inf): 167 days (CI: 83-inf)
Median OS: 7 months
Median PFS: 147 days (CI: 39-199)
Median PFS (listed as bimiralisib): 147 days
Median OS (95% CI 39 days-infinity): 215 days (CI: 39-inf)
Median OS (95% CI 39 days-infinity, listed as bimiralisib): 215 days
Response assessment, CR [1]: 0 (0%)
Response assessment, PR [1]: 1 (17%)
Reduction in the target lesion size (one patient with confirmed partial response): 49%
Day of progressive disease (one patient with progressive disease): 83
Reduction in the target lesion size compared with baseline, final computed tomography scan (patient with confirmed partial response, in study until day 157): 45%
Day of disease progression (three patients with confirmed stable disease, one value each): 91 days and 138 days and 167 days
